Measured values published in patent US20250073354A1, “COMPOSITIONS AND METHODS FOR DELIVERY OF AGENTS TO INNER EAR” (University of Rochester, priority 2021, published 2025).
Entries after “also recorded” stand apart in the source; their conditions may differ.

Key:
[1] = CT time series of CSF tracer transport to the cochlea after intracisternal infusion; type: in vivo, mouse
Procedure: During the CM cannulation procedure a custom-made head bar was fixed on the top of the animal skull. The head bar was designed to minimize undesired movements during the image acquisition (Yoshida et al., 2016), and fixed to an animal holder. […] Animal's respiration was monitored by using Biovet software. CT scans were performed with the Vector4CT system (MILabs, Utrecht, Netherlands) and scanning of the entire mouse head was performed in 4.56 min at an isotropic spatial resolution of 20 μm. The time series CT scanning protocol comprised one baseline scan (4.5 min) followed by intracisternal infusion of Omnipaque (350 mg I/ml, 1 μL/min, 10 μL, GE healthcare). Scans continued over 6 measurements (30 min) after intracisternal infusion of Omnipaque.
The time-intensity data was extracted using ITK snap with the ROIs described above after background subtraction and then normalized to maximal cisterna magna intensity. Dimensions of cochlear aqueduct were measured using the #X feature in ITK snap for #four animals. Distances between ROIs were calculated using their spatial coordinates.
To solve the equation (#ref), inventors implemented a simple finite difference scheme in Python (#ref) using NumPy and Scipy (#ref). Estimation of the dispersion coefficient was achieved by minimizing the L2-norm prediction error, using Scipy (#ref) E: […]

[2] = mouse, in vivo
Procedure: Briefly, mice were anesthetized with a mixture of Ketamine/Xylazine (100 mg/kg, 10 mg/kg, respectively), after depth of anesthesia was confirmed by the cessation of reflexes, the incision area was properly shaved and sterilized with the aid of ethanol 70% swabs (Vitrex Medical A/S Herlev, DK), followed by iodine solution (Povidone Iodine 7,5% Henry Schein, Melville, NY, USA) applicated using cotton swabs. Before the onset of surgery, analgesics were applied, Lidocaine (0.05 ml, 0.2 mg/ml) was applied in the incision site and Buprenorphine (0.05 mg/kg) injected subcutaneously for post-surgical analgesia. After performing the skin incision around the occipital crest, the neck muscles were separated to reveal the CM underneath. […]
Immediately after the CM cannulation procedure, animals were moved to MRI scanner and head movement during scanning was minimized by restraining the animals on an MR-compatible stereotactic holder with ear bars. Body temperature was maintained at 37±0.5° C. with a thermostatically controlled waterbed and monitored, along with the respiratory rate by an MR compatible remote monitoring system (SA Instruments, NY, USA). […] Every 3D-CISS image was calculated as a maximum intensity projection from 4 realigned 3D-TrueFISP volumes with 4 orthogonal phase encoding directions (TR/TE 3.9/1.95 ms, Nex 2, FA 50°, FOV 19.2×12.8×12.8 mm, Matrix 192×128×128, BW 150 kHz). […]
Both DCE-MRI and CT time series data were motion corrected using Advanced Normalization Tools (ANTs ver.2.1.0) (Avants et al., 2008; Avants et al., 2011). Motion corrected time series in MRI images were converted into percent change from baseline-time series, calculated as the percent signal change from the averaged signal of baseline images.

| Time activity curves for tracer influx in mice lacking aqp4 [2] | Time to reach 50 max [2] | Tracer distribution to cochlea [2] | SMILES | Tracer concentration in scala vestibuli or cochlear nerve ([1]; during the 30 min of scanning) | Tracer distribution to scala tympani ([1]; intracisternal delivery, continuous CT scanning) |
| --- | --- | --- | --- | --- | --- |
|  |  |  | CC(=O)N(CC(O)CO)c1c(I)c(C(=O)NCC(O)CO)c(I)c(C(=O)NCC(O)CO)c1I (centres unmarked) [Omnipaque] | No clear rise; also recorded: no significant tracer arrives | reaches the base and middle region of the scala tympani |
| did not differ from wild type animals | significantly higher in the cochlea | reaches the cochlea | O=C([O-])CN1CCN(CC(=O)[O-])CCN([C@H](CO)[C@H](O)CO)CCN(CC(=O)[O-])CC1.[Gd+3] (racemic) [Gadovist, gadobutrol] |  |  |
